# According to patent publication US12559474B2, “Triazine derivatives having virus replication inhibitory activity and pharmaceutical composition comprising the same” (priority 2021, dated 2026):
# Where two headings read alike, the source gives them in different places.
# What was measured:
# SARS-CoV-2 = experiment: microbe, parasite or virus in culture; assay type: cell-based; conditions: 50% SARS-CoV-2 infected cell death inhibitory concentration, VeroE6/TMPRSS2 cells, 3 days culture
# SARS-CoV-2 3CL protease = SARS-CoV-2 3CL protease (Severe acute respiratory syndrome coronavirus 2, UniProt P0DTD1); experiment: biochemical; conditions: 50% SARS-CoV-2 3CL protease inhibitory concentration, read-out: IC50
# [1] = Severe acute respiratory syndrome coronavirus 2, VeroE6/TMPRSS2, 72 h, class symbols
# [2] = Severe acute respiratory syndrome coronavirus 2, VeroE6/TMPRSS2, 72 h, CellTiter-Glo 2.0
smiles,measurement,setting,value
Cn1cnc(Cn2c(=O)nc(Nc3cc4c(cc3Cl)OCC4)n(Cc3cc(F)c(F)c(F)c3F)c2=O)n1 [II-0017],EC50,SARS-CoV-2; [1],< 1000 nM
same,IC50,SARS-CoV-2 3CL protease; given as class symbols,< 100 nM
CCn1cc2cc(Nc3nc(=O)n(-c4cncc(Cl)c4)c(=O)n3Cc3ccc(F)c(C#N)c3)ccc2n1 [II-0566],EC50,SARS-CoV-2; [2],898 nM
same,IC50,SARS-CoV-2 3CL protease; RapidFire MS,27 nM
Cc1cncc(-n2c(=O)nc(Nc3cc4cn(C)nc4cc3Cl)n(Cc3ccc(F)cc3F)c2=O)c1 [II-0185],EC50,SARS-CoV-2; [1],< 1000 nM
same,IC50,SARS-CoV-2 3CL protease; given as class symbols,< 100 nM
Cc1cncc(-n2c(=O)nc(Nc3cc4cn(C)nc4cc3F)n(Cc3cc(F)c(F)c(C#N)c3)c2=O)c1 [II-0054],EC50,SARS-CoV-2; [1],< 1000 nM
same,IC50,SARS-CoV-2 3CL protease; given as class symbols,< 100 nM
O=c1[nH]cc(F)cc1Cn1c(=O)nc(Nc2cc3c(cc2Cl)OCC3)n(Cc2cc(F)c(F)cc2F)c1=O [II-0022],EC50,SARS-CoV-2; [1],< 1000 nM
same,IC50,SARS-CoV-2 3CL protease; given as class symbols,< 100 nM
Cn1cc2cc(Nc3nc(=O)n(Cc4nccc(N)n4)c(=O)n3Cc3cc(F)c(F)cc3F)c(Cl)cc2n1 [II-0246],EC50,SARS-CoV-2; [1],1000 to 10000 nM
same,IC50,SARS-CoV-2 3CL protease; given as class symbols,< 100 nM
Cc1cncc(-n2c(=O)nc(Nc3cc4c(cc3Cl)nc3n4CCN3)n(Cc3ccc(F)c(C#N)c3)c2=O)c1 [II-0407],EC50,SARS-CoV-2; [2],15000 nM
same,IC50,SARS-CoV-2 3CL protease; RapidFire MS,3.8 nM
CNc1nc2ccc(Nc3nc(=O)n(-c4cncc(C)c4)c(=O)n3Cc3cc(C#N)ccc3Cl)cc2s1 [II-0497],EC50,SARS-CoV-2; [1],< 1000 nM
same,IC50,SARS-CoV-2 3CL protease; given as class symbols,< 100 nM
Cc1cncc(-n2c(=O)nc(Nc3cc4cn(C)nc4cc3Cl)n(Cc3cc(C#N)ccc3C(F)F)c2=O)c1 [II-0333],EC50,SARS-CoV-2; [1],< 1000 nM
same,IC50,SARS-CoV-2 3CL protease; given as class symbols,< 100 nM
COc1ccc(Nc2nc(=O)n(Cc3ccc(C)[nH]c3=O)c(=O)n2Cc2cc(F)c(F)c(F)c2)cc1 [Compound I-0358],EC50,SARS-CoV-2; [2],7450 nM
same,IC50,SARS-CoV-2 3CL protease; given as class symbols,100 to 1000 nM
same,IC50,SARS-CoV-2 3CL protease; RapidFire MS,120 nM
Cn1cnc(Cn2c(=O)nc(Nc3cc4cn(C)nc4cc3Cl)n(Cc3cc(F)cc(F)c3)c2=O)n1 [II-0207],EC50,SARS-CoV-2; [1],1000 to 10000 nM
same,IC50,SARS-CoV-2 3CL protease; given as class symbols,< 100 nM
Cn1cc2cc(Nc3nc(=O)n(Cc4ncccn4)c(=O)n3Cc3cc(F)c(F)c(Cl)c3)c(Cl)cc2n1 [II-0296],EC50,SARS-CoV-2; [1],< 1000 nM
same,IC50,SARS-CoV-2 3CL protease; given as class symbols,< 100 nM
Cc1cncc(-n2c(=O)nc(Nc3cc4cn(C)nc4cc3Cl)n(Cc3cc(F)c(F)cc3Cc3cccc(CO)c3)c2=O)c1 [II-0025],EC50,SARS-CoV-2; [1],8000 nM
same,IC50,SARS-CoV-2 3CL protease; given as class symbols,< 100 nM
CCn1cc2cc(Nc3nc(=O)n(-c4cncc(C)c4)c(=O)n3Cc3cc(C#N)c(F)cc3C)ccc2n1 [II-0335],EC50,SARS-CoV-2; [2],241 nM
same,IC50,SARS-CoV-2 3CL protease; RapidFire MS,3.2 nM
COc1ccc(Oc2nc(=O)n(Cc3ccc[nH]c3=O)c(=O)n2Cc2cc(F)c(F)c(F)c2)c(C)c1 [Compound I-0128],EC50,SARS-CoV-2; [1],< 1000 nM
same,IC50,SARS-CoV-2 3CL protease; RapidFire MS,9700 nM
COc1ccc(Nc2nc(=O)n(Cc3ccc[nH]c3=O)c(=O)n2Cc2cc(Cl)c(F)cc2F)cc1 [Compound I-0226],EC50,SARS-CoV-2; [1],1000 to 10000 nM
same,IC50,SARS-CoV-2 3CL protease; given as class symbols,< 100 nM
Cc1cncc(-n2c(=O)nc(Nc3ccc4nn(CC(F)(F)F)cc4c3)n(Cc3cc(C#N)ccc3Cl)c2=O)c1 [II-0001],EC50,SARS-CoV-2; [2],466 nM
same,IC50,SARS-CoV-2 3CL protease; RapidFire MS,3.4 nM
Cn1cnc(Cn2c(=O)nc(Nc3cc4sc(NC5CC5)nc4cc3Cl)n(Cc3cc(F)c(F)cc3F)c2=O)n1 [II-0306],EC50,SARS-CoV-2; [2],410 nM
same,IC50,SARS-CoV-2 3CL protease; RapidFire MS,5.1 nM
Cc1cncc(-n2c(=O)nc(Nc3cc4cn(C)nc4cc3Cl)n(Cc3cc(Cl)cc(Br)c3)c2=O)c1 [II-0215],EC50,SARS-CoV-2; [1],1000 to 10000 nM
same,IC50,SARS-CoV-2 3CL protease; given as class symbols,< 100 nM
Cn1cc2cc(Nc3nc(=O)n(-c4cncc(Cl)c4)c(=O)n3Cc3cc(C#N)c(F)cn3)c(Cl)cc2n1 [II-0538],EC50,SARS-CoV-2; [1],1000 to 10000 nM
same,IC50,SARS-CoV-2 3CL protease; given as class symbols,< 100 nM
Cc1cncc(-n2c(=O)nc(Nc3cc4c(cc3Cl)OC(C)C4)n(Cc3ccc(F)c(C#N)c3)c2=O)c1 (stereo not drawn) [II-0121],EC50,SARS-CoV-2; class symbols,< 1000 nM
same,IC50,SARS-CoV-2 3CL protease; given as class symbols,< 100 nM
Cc1cncc(-n2c(=O)nc(Nc3cc4cn(C)nc4cc3Cl)n(Cc3cc(Cl)ccc3C#N)c2=O)c1 [II-0426],EC50,SARS-CoV-2; [1],< 1000 nM
same,IC50,SARS-CoV-2 3CL protease; given as class symbols,< 100 nM
O=c1[nH]c2sccc2cc1Cn1c(=O)nc(Nc2cc3cn(CCO)nc3cc2Cl)n(Cc2cc(F)c(F)c(F)c2)c1=O [II-0031],EC50,SARS-CoV-2; [1],1000 to 10000 nM
same,IC50,SARS-CoV-2 3CL protease; given as class symbols,< 100 nM
N#Cc1cc(Cn2c(Nc3cc4c(cc3Cl)OCC4)nc(=O)n(Cc3cc(Cl)c[nH]c3=O)c2=O)ccc1F [Compound I-0408],EC50,SARS-CoV-2; [1],1000 to 10000 nM
same,IC50,SARS-CoV-2 3CL protease; given as class symbols,< 100 nM
Cc1cncc(-n2c(=O)nc(Nc3cc4cn(C)nc4cc3Cl)n(Cc3cc(F)c(F)c(F)c3)c2=O)c1F [II-0270],EC50,SARS-CoV-2; [1],1000 to 10000 nM
same,IC50,SARS-CoV-2 3CL protease; given as class symbols,< 100 nM
Cc1cncc(-n2c(=O)nc(Nc3ccc4nn(CC(F)F)cc4c3)n(Cc3cc(C#N)c(F)cc3C)c2=O)c1 [II-0278],EC50,SARS-CoV-2; [2],170 nM
same,IC50,SARS-CoV-2 3CL protease; RapidFire MS,3.1 nM
Cc1cncc(-n2c(=O)nc(Nc3cc4sc(NCC(F)(F)F)nc4cc3F)n(Cc3ccc(F)c(C#N)c3)c2=O)c1 [II-0244],EC50,SARS-CoV-2; [1],1000 to 10000 nM
same,IC50,SARS-CoV-2 3CL protease; given as class symbols,< 100 nM
Cn1cc2cc(Nc3nc(=O)n(-c4cncc(C#N)c4)c(=O)n3Cc3cc(Cl)c(F)cc3F)c(Cl)cc2n1 [II-0485],EC50,SARS-CoV-2; [1],< 1000 nM
same,IC50,SARS-CoV-2 3CL protease; given as class symbols,< 100 nM
Cc1cncc(-n2c(=O)nc(Nc3cc4cn(CC(F)F)nc4cc3Cl)n(Cc3cc(Cl)c(F)cn3)c2=O)c1 [II-0586],EC50,SARS-CoV-2; [1],< 1000 nM
same,IC50,SARS-CoV-2 3CL protease; given as class symbols,< 100 nM
N#CCn1cc2cc(Nc3nc(=O)n(Cc4ccc[nH]c4=O)c(=O)n3Cc3cc(F)c(F)c(F)c3)c(Cl)cc2n1 [II-0507],EC50,SARS-CoV-2; [1],1000 to 10000 nM
same,IC50,SARS-CoV-2 3CL protease; given as class symbols,< 100 nM
CNc1nc2ccc(Nc3nc(=O)n(-c4cncc(Cl)c4)c(=O)n3Cc3cc(C#N)c(F)cc3C)cc2s1 [II-0396],EC50,SARS-CoV-2; [1],< 1000 nM
same,IC50,SARS-CoV-2 3CL protease; given as class symbols,< 100 nM
O=c1[nH]cccc1Cn1c(=O)nc(Nc2cc3cn(CCO)nc3cc2Cl)n(Cc2cc(F)c(F)c(F)c2)c1=O [Compound I-0281],EC50,SARS-CoV-2; [2],4180 nM
same,IC50,SARS-CoV-2 3CL protease; RapidFire MS,3.8 nM
CC(C)(O)Cn1cc2cc(Nc3nc(=O)n(Cc4cc(Cl)c[nH]c4=O)c(=O)n3Cc3cc(F)c(F)c(F)c3)c(Cl)cc2n1 [Compound I-0455],EC50,SARS-CoV-2; [1],1000 to 10000 nM
same,IC50,SARS-CoV-2 3CL protease; given as class symbols,< 100 nM
Cc1cncc(-n2c(=O)nc(Nc3cc4c(cc3C)OCC4)n(Cc3ccc(F)c(C#N)c3)c2=O)c1 [II-0172],EC50,SARS-CoV-2; [1],< 1000 nM
same,IC50,SARS-CoV-2 3CL protease; given as class symbols,< 100 nM
Cn1cnc(Cn2c(=O)nc(Nc3cc4cn(CC(F)F)nc4cc3F)n(Cc3cc(F)c(F)c(F)c3)c2=O)n1 [II-0112],EC50,SARS-CoV-2; [1],1000 to 10000 nM
same,IC50,SARS-CoV-2 3CL protease; given as class symbols,< 100 nM
Cn1cnc(Cn2c(=O)nc(Nc3cc4c(cc3Cl)nc3n4CCN3)n(Cc3cc(Cl)c(F)cc3F)c2=O)n1 [II-0522],EC50,SARS-CoV-2; [2],15000 nM
same,IC50,SARS-CoV-2 3CL protease; RapidFire MS,4.1 nM
C#Cc1cc(F)c(F)cc1Cn1c(Nc2cc3cn(C)nc3cc2Cl)nc(=O)n(-c2cncc(C)c2)c1=O [II-0065],EC50,SARS-CoV-2; [1],< 1000 nM
same,IC50,SARS-CoV-2 3CL protease; given as class symbols,< 100 nM
Cn1cnc(Cn2c(=O)nc(Nc3cc4cn(Cc5ccccn5)nc4cc3Cl)n(Cc3cc(Cl)c(F)cc3F)c2=O)n1 [II-0005],EC50,SARS-CoV-2; [1],1000 to 10000 nM
same,IC50,SARS-CoV-2 3CL protease; given as class symbols,< 100 nM
Cc1cncc(-n2c(=O)nc(Nc3cc4oc(C)nc4cc3Cl)n(Cc3ccc(F)c(C#N)c3)c2=O)c1 [II-0108],EC50,SARS-CoV-2; [1],1000 to 10000 nM
same,IC50,SARS-CoV-2 3CL protease; given as class symbols,< 100 nM
Cc1ccc(Cl)cc1Cn1c(Nc2cc3cn(C)nc3cc2Cl)nc(=O)n(Cc2ncn(C)n2)c1=O [II-0052],EC50,SARS-CoV-2; [1],1000 to 10000 nM
same,IC50,SARS-CoV-2 3CL protease; given as class symbols,< 100 nM
Cn1cc2cc(Nc3nc(=O)n(-c4cnc5ccccn45)c(=O)n3Cc3cc(F)c(F)c(Cl)c3)c(Cl)cc2n1 [II-0490],EC50,SARS-CoV-2; [2],8700 nM
same,IC50,SARS-CoV-2 3CL protease; RapidFire MS,83 nM
COc1cc(Cl)c(Nc2nc(=O)n(-c3cncc(C)c3)c(=O)n2Cc2ccc(F)c(C#N)c2)cn1 [II-0479],EC50,SARS-CoV-2; [1],1000 to 10000 nM
same,IC50,SARS-CoV-2 3CL protease; given as class symbols,< 100 nM
Cc1cncc(-n2c(=O)nc(Nc3cc4cn(C)nc4cc3Cl)n(Cc3cc(Cl)ccc3F)c2=O)c1 [II-0362],EC50,SARS-CoV-2; [1],< 1000 nM
same,IC50,SARS-CoV-2 3CL protease; given as class symbols,< 100 nM
